Experimental data taken from publication PMC11698746 (Scientific Reports, 2025).
Where two headings read alike, the source gives them in different places.

What was measured:
[1] = Pharmacokinetics of HLF via oral administration; format: in vivo, rat; settings: after intragastric administration of HLF
[2] = cited from earlier work
[3] = test system: rat intestine; format: in vivo; settings: for detection in the effluent fluid: rat single-pass intestinal perfusion after HLF via jugular vein
[4] = test system: intestinal microflora; experiment: Metabolism of HLF by intestinal microflora; format: in vitro ADME, rat; settings: anaerobic incubation 37 °C, up to 48 h
[5] = In situ recirculating intestinal perfusion; format: in vivo; settings: rat, other: in situ recirculating intestinal perfusion, absorption potential (Papp), rat small intestine, different concentrations of HLF
[6] = test system: rat small intestine; experiment: In situ recirculating intestinal perfusion; format: in vivo; settings: different concentrations of HLF
[7] = Transport of flavonoids in HLF across Caco-2 cell monolayer; format: in vitro ADME; settings: human, Caco-2, Papp, Caco-2, range over HLF 50, 100 and 200 µg·mL^−1

Compound | detection in the rat plasma and bile [1] | Papp ([2]; previous study) | detection in the effluent fluid [3] | metabolism by the intestinal microflora [4] | Papp at 3 h [5] [×10⁻⁶ cm/s] | absorption extent (A) [6] [%·h^−1] | absorption potential (Papp) [6] | Papp [7] [×10⁻⁶ cm/s] | Papp ([2]; other study) | reduction of cumulative efflux amount ([3]; in the presence of VP vs absence) [%]
O=c1c(O[C@@H]2O[C@H](CO)[C@H](O)[C@H](O)[C@H]2O)c(-c2ccc(O)c(O)c2)oc2cc(O)cc(O)c12 [HP, hyperoside] | cannot be detected | 1.87 ± 1.11 ×10^−7 cm·sec^−1 | hardly detected | metabolized to QUE | 0.255 to 0.427 | 11.40 ± 0.98 | 4.27 ± 0.36 ×10^−7 cm·sec^−1 | 0.226 to 0.383 | – | –
C[C@@H]1O[C@@H](OC[C@H]2O[C@@H](Oc3c(-c4ccc(O)c(O)c4)oc4cc(O)cc(O)c4c3=O)[C@H](O)[C@@H](O)[C@@H]2O)[C@H](O)[C@H](O)[C@H]1O [RUT, rutin] | cannot be detected | – | hardly detected | metabolized to QUE | 0.031 to 0.141 | – | – | 0.228 to 0.304 | 1.03 ± 0.13 ×10^−5 cm·sec^−1 | –
O=c1cc(-c2ccc(O)cc2)oc2c([C@@H]3O[C@H](CO)[C@@H](O)[C@H](O)[C@H]3O)c(O)cc(O)c12 [VIT, vitexin] | cannot be detected | – | detected | – | 0.031 to 0.141 | – | – | 0.218 to 0.383 | – | 47.63
